According to patent publication US4175123A, “Amino-sugar derivatives, process for their preparation and pharmaceutical composition thereof” (Bayer Aktiengesellschaft, priority 1976, dated 1979):

Key:
glucosidase [1] = assay: Starch feeding test: postprandial blood sugar after oral starch + glucosidase inhibitor in fasting rats; assay type: in vivo, rat
Protocol: (§1) The in vivo activity of the compound was tested on some examples using the experimental arrangement described in the following text.
(§2) Oral administration of starch or sucrose causes a rise in the blood sugar in warm-blooded animals, provided that the carbohydrates are enzymatically degraded in the small intestine to monosaccharides. The inhibition of their enzymatic hydrolysis by glucosidase inhibitors causes a reduced rise in the blood sugar.
(§3) In order to detect the action of glucosidase inhibitors, 6 fasting rats receive perorally, 1 g of broiled starch or 2.5 g of sucrose/kg in the form of an aqueous suspension or in the form of an aqueous solution (starch and sucrose control respectively). An equal number of rats receive the glucosidase inhibitor in the dose indicated, together with the same amount of the carbohydrate concerned. An equal volume of physiological sodium chloride solution is administered orally to a further six rats (control). After administration of the carbohydrate concerned±glucosidae inhibitor, the postprandial change in blood sugar is measured, at the times indicated, in blood from the postorbital venous plexus in an auto-analyser according to the method of W. S. Hoffmann [J biol. Chem 120, 51 (1937)].

glucosidase [2] = assay: Sucrose feeding test: postprandial blood sugar after oral sucrose + glucosidase inhibitor in fasting rats; assay type: in vivo, rat
Protocol: as §1, §2, §3

[3] = tested on: small intestine of fasting male Wistar rats (glucose absorption); assay: In vitro method for the inhibition of glucose absorption (small intestine rings, D-glucose-14C); parameters: species or system rat (male Wistar); conditions: Rattus norvegicus, 2 min; 10 mg/ml; 2 minutes at 37° C., pH 7.4, D-glucose-14C 10 mg/ml
Protocol: In vitro method for the inhibition of glucose absorption
The upper part of the small intestine of fasting male Wistar rats is folded over and cut into rings about 3 mm wide. 10 of these rings (~150 mg moist weight) are incubated for 2 minutes at 37° C. in 5 ml of Krebs-Ringer bicarbonate buffer (pH 7.4) with D-glucose-^14 C (U) (10 mg/ml, 0.2 μCi/ml), with the addition of the active compounds. The washed and dried-off intestine rings are weighted, dissolved in 5 ml of Digestin (Merck)/isopropanol (1:1) and the radioactivity absorbed in the tissue is determined in a liquid scintillation counter. All values are corrected using the radioactivity absorbed in the tissue as D-mannitol-1-^14 C.
In vitro inhibitions of the glucose absorption by some selected compounds (10 mg/ml): […]

C[C@H]1O[C@H](O[C@H]2[C@H](O)[C@@H](O)[C@H](OCc3ccccc3)O[C@@H]2CO)[C@H](O)[C@@H](O)[C@@H]1N[C@H]1C=C(CO)[C@@H](O)[C@H](O)[C@H]1O [Compound 20, Benzyl-O-{C}-(1→4)-β-D-glucopyranoside]
Blood sugar ± standard deviation, 15 minutes (glucosidase [1]; 10 mg/kg perorally + 1 g starch/kg, starch control 146 ± 19, fasting control 82 ± 12): 87 ± 12 mg/dL | Blood sugar ± standard deviation, 30 minutes (glucosidase [1]; 10 mg/kg perorally + 1 g starch/kg, starch control 144 ± 8.9, fasting control 72 ± 10): 83 ± 13 mg/dL | Blood sugar ± standard deviation, 45 minutes (glucosidase [1]; 10 mg/kg perorally + 1 g starch/kg, 45 minutes, starch control 120 ± 7.9, fasting control 102 ± 6.7): 99 ± 17 mg/dL | Blood sugar ± standard deviation, 60 minutes (glucosidase [1]; 10 mg/kg perorally + 1 g starch/kg, 60 minutes, starch control 118 ± 6.9, fasting control 88 ± 7.4): 111 ± 5.6 mg/dL | Blood sugar ± standard deviation, 15 minutes (glucosidase [2]; 10 mg/kg perorally + 2.5 g sucrose/kg, sucrose control 113 ± 6.5, fasting control 61 ± 13): 83 ± 20 mg/dL | Blood sugar ± standard deviation, 30 minutes (glucosidase [2]; 10 mg/kg perorally + 2.5 g sucrose/kg, sucrose control 116 ± 9.2, fasting control 65 ± 3.9): 85 ± 8.3 mg/dL | Blood sugar ± standard deviation, 45 minutes (glucosidase [2]; 10 mg/kg perorally + 2.5 g sucrose/kg, sucrose control 104 ± 12, fasting control 66 ± 6.9): 73 ± 8.5 mg/dL | Blood sugar ± standard deviation, 60 minutes (glucosidase [2]; 10 mg/kg perorally + 2.5 g sucrose/kg, sucrose control 123 ± 8.1, fasting control 76 ± 3.7): 69 ± 9.3 mg/dL

C[C@H]1O[C@H](O[C@H]2[C@H](O)[C@@H](O)[C@@H](O[C@H]3[C@H](O)[C@@H](O)[C@H](Oc4cccc(C(=O)O)c4)O[C@@H]3CO)O[C@@H]2CO)[C@H](O)[C@@H](O)[C@@H]1N[C@H]1C=C(CO)[C@@H](O)[C@H](O)[C@H]1O [Example 1, 5, m-Carboxyphenyl-O-{C}-(1→4)-O-α-D-glcp-(1→4)-β-D- glucopyranoside]
inhibition at 10000 µg/mL [3]: > 50%

C[C@H]1O[C@H](O[C@H]2[C@H](O)[C@@H](O)[C@@H](O[C@H]3[C@H](O)[C@@H](O)[C@H](Oc4ccc(C(=O)O)cc4)O[C@@H]3CO)O[C@@H]2CO)[C@H](O)[C@@H](O)[C@@H]1N[C@H]1C=C(CO)[C@@H](O)[C@H](O)[C@H]1O [Example 1, 7, p-Carboxyphenyl-O-{C}-(1→4)-O-α-D-glcp-(1→4)-β-D- glucopyranoside]
inhibition at 10000 µg/mL [3]: 25 to 50% | Blood sugar ± standard deviation, 15 minutes (glucosidase [1]; 0.92 mg/kg perorally + 1 g starch/kg, starch control 131 ± 7.2, fasting control 60 ± 4.2): 121 ± 7.7 mg/dL | Blood sugar ± standard deviation, 30 minutes (glucosidase [1]; 0.92 mg/kg perorally + 1 g starch/kg, starch control 113 ± 9.2, fasting control 62 ± 3.4): 112 ± 4.3 mg/dL | Blood sugar ± standard deviation, 15 minutes (glucosidase [2]; 0.92 mg/kg perorally + 2.5 g sucrose/kg, sucrose control 128 ± 8.0, fasting control 60 ± 4.6): 110 ± 3.4 mg/dL | Blood sugar ± standard deviation, 30 minutes (glucosidase [2]; 0.92 mg/kg perorally + 2.5 g sucrose/kg, sucrose control 133 ± 8.7, fasting control 64 ± 3.7): 118 ± 14 mg/dL | Blood sugar ± standard deviation, 45 minutes (glucosidase [2]; 0.92 mg/kg perorally + 2.5 g sucrose/kg, sucrose control 134 ± 6.1, fasting control 73 ± 7.1): 112 ± 10 mg/dL | Blood sugar ± standard deviation, 60 minutes (glucosidase [2]; 0.92 mg/kg perorally + 2.5 g sucrose/kg, sucrose control 119 ± 10, fasting control 66 ± 4.2): 117 ± 9.0 mg/dL

C[C@H]1O[C@H](O[C@H]2[C@H](O)[C@@H](O)[C@@H](O[C@H]3[C@H](O)[C@@H](O)[C@H](Oc4ccc(O)cc4)O[C@@H]3CO)O[C@@H]2CO)[C@H](O)[C@@H](O)[C@@H]1N[C@H]1C=C(CO)[C@@H](O)[C@H](O)[C@H]1O [Example 1, 8, p-Hydroxyphenyl-O-{C}-(1→4)-O-α-D-glcp-(1→4)-β-D- glucopyranoside]
inhibition at 10000 µg/mL [3]: 25 to 50% | Blood sugar ± standard deviation, 15 minutes (glucosidase [1]; 0.65 mg/kg perorally + 1 g starch/kg, starch control 131 ± 7.2, fasting control 60 ± 4.2): 112 ± 9.9 mg/dL | Blood sugar ± standard deviation, 30 minutes (glucosidase [1]; 0.65 mg/kg perorally + 1 g starch/kg, starch control 113 ± 9.2, fasting control 62 ± 3.4): 109 ± 12 mg/dL | Blood sugar ± standard deviation, 15 minutes (glucosidase [2]; 0.65 mg/kg perorally + 2.5 g sucrose/kg, sucrose control 128 ± 8.0, fasting control 60 ± 4.6): 112 ± 3.1 mg/dL | Blood sugar ± standard deviation, 30 minutes (glucosidase [2]; 0.65 mg/kg perorally + 2.5 g sucrose/kg, sucrose control 133 ± 8.7, fasting control 64 ± 3.7): 114 ± 6.3 mg/dL | Blood sugar ± standard deviation, 45 minutes (glucosidase [2]; 0.65 mg/kg perorally + 2.5 g sucrose/kg, sucrose control 134 ± 6.1, fasting control 73 ± 7.1): 119 ± 9.4 mg/dL | Blood sugar ± standard deviation, 60 minutes (glucosidase [2]; 0.65 mg/kg perorally + 2.5 g sucrose/kg, sucrose control 119 ± 10, fasting control 66 ± 4.2): 112 ± 4.3 mg/dL

C[C@H]1O[C@H](O[C@H]2[C@H](O)[C@@H](O)[C@@H](O[C@H]3[C@H](O)[C@@H](O)[C@H](Oc4ccc(C(C)(C)C)cc4)O[C@@H]3CO)O[C@@H]2CO)[C@H](O)[C@@H](O)[C@@H]1N[C@H]1C=C(CO)[C@@H](O)[C@H](O)[C@H]1O [Example 1, 9, p-tert-Butylphenyl-O-{C}-(1→4)-O-α-D-glcp-(1→4)-β-D glucopyranoside]
inhibition at 10000 µg/mL [3]: > 50% | Blood sugar ± standard deviation, 15 minutes (glucosidase [2]; 3.0 mg/kg perorally + 2.5 g sucrose/kg, sucrose control 134 ± 13, fasting control 71 ± 3.7): 85 ± 4.8 mg/dL | Blood sugar ± standard deviation, 30 minutes (glucosidase [2]; 3.0 mg/kg perorally + 2.5 g sucrose/kg, sucrose control 116 ± 20, fasting control 70 ± 5.3): 83 ± 7.9 mg/dL | Blood sugar ± standard deviation, 45 minutes (glucosidase [2]; 3.0 mg/kg perorally + 2.5 g sucrose/kg, sucrose control 125 ± 8.6, fasting control 77 ± 5.5): 88 ± 3.4 mg/dL | Blood sugar ± standard deviation, 60 minutes (glucosidase [2]; 3.0 mg/kg perorally + 2.5 g sucrose/kg, sucrose control 112 ± 15, fasting control 78 ± 7.3): 92 ± 9.4 mg/dL

CCCCCCCCCCCCCCCCO[C@@H]1O[C@H](CO)[C@@H](O[C@H]2O[C@H](CO)[C@@H](O[C@H]3O[C@H](C)[C@@H](N[C@H]4C=C(CO)[C@@H](O)[C@H](O)[C@H]4O)[C@H](O)[C@H]3O)[C@H](O)[C@H]2O)[C@H](O)[C@H]1O [Example 4, 18, n-Hexadecyl-O-{C}-(1→4)-O-α-D-glcp-(1→4)-β-D-glucopyranoside]
inhibition at 10000 µg/mL [3]: > 50%
